# Assays:
# Type in all cases: in vivo
# [1] = system: C57BL/6 mice with Lewis lung carcinoma-induced cachexia; test: Body weight and muscle mass in C57BL/6 mice with Lewis lung carcinoma-induced cachexia
# Protocol: (§1) As the experimental animals, 4-week-old female C57BL/6 mice and Balb/c mice weighing 18 g to 20 g were purchased from Raon Bio (Yongin, Korea), acclimatized in the laboratory animal facility for one week, and then used in the experiment. During the experiment period, the animals were provided with solid feed and water ad libitum, and the breeding room was maintained at a temperature of 20° C. to 24° C. and a relative humidity of 55% to 65% with a 12-hr light/12-hr dark cycle.
# (§2) Mice were divided into a control group and a cachexia-induced group, and the cachexia-induced group was subdivided into a tumor cell-injected group, a tumor cell-injected and existing drug (MA, megestrol acetate)-administered group, and tumor cell-injected and paeoniflorin (Pae)-administered groups. Each group consisted of 10 animals.
# Each mouse of the control group was injected subcutaneously with 100 μL of saline solution. For the cachexia-induced groups, Lewis lung carcinoma cells (C57BL/6 mice) or colon-26 carcinoma cells (Balb/c mice) were injected subcutaneously into the flank area of each mouse at a dose of 10^6 cells/100 μL/mouse. After 2 weeks, when a distinct tumor was formed, the tumor cell-injected group was orally administered distilled water, the tumor cell-injected and existing drug-administered group was orally administered megestrol acetate (MA), which is currently most commonly prescribed for cancer cachexia patients in clinical practice, at a dose of 160 mg/kg (=800 mg [daily human dose]/60 kg [average human body weight]×12 [dose equivalent factor based on human:mouse body surface area ratio], once daily for 9 days, and the tumor cell-injected and paeoniflorin-administered groups were orally administered paeoniflorin (prepared in Example 1) once daily for 9 days at doses of 5 (Pae 5 group), 10 (Pae 10 group) and 20 (Pae 20 group) mg/kg, respectively. After completion of 9 days of administration, the muscle strength of the mice was measured using a grip strength test device (Bioseb, USA), and the endurance of the mice was measured using a treadmill device (Columbus Instrument, USA).
# After completion of the experiment, the mice were euthanized, blood was collected therefrom, the body weight excluding tumors, and the weights of the hind limb gastrocnemius muscle and quadriceps muscle were measured. GDF-15 in the serum was quantified by ELISA.
# [2] = system: myosin heavy chain (MyHC) and myoblast determination protein (MyoD); test: Protein levels of MyHC and MyoD in gastrocnemius muscle by Western blotting; conditions: C57BL/6 mice, cisplatin-treated, Pae 10 and Pae 20 vs vehicle
# Protocol: In addition, cisplatin-treated mice orally administered the same volume of distilled water were designated as the vehicle group. After completion of drug treatment, the mice of each group were euthanized with 10 mg/kg alfaxalone (Jurox, Rutherford, Australia). Blood was collected in test tubes containing EDTA, and centrifuged, and plasma was separated therefrom. Gastrocnemius and quadriceps skeletal muscles were dissected and weighed. The skeletal muscles were rapidly frozen in liquid nitrogen to be used for RT-qPCR, Western blotting, and ELISA.
# Proteins were extracted from skeletal muscle using NucleoSpin kits (Macherey-Nagel, Duren, Germany) and quantified using the BCA Protein Assay Kit (Pierce, Rockford, IL, USA). Anti-β-actin antibody was used to quantify protein loading. For myosin protein (MyHC, myosin heavy chain), myogenic factor (MyoD), and NF-κB signaling system (p-IKK, IKK, p-IκB, and IκB), protein levels in the gastrocnemius muscle were measured by Western blotting. Band intensities were quantified using ImageJ software (NIH, Bethesda, MD, USA).
# In order to measure the mRNA and protein levels of major factors involved in muscle loss, muscle contraction, and muscle differentiation, the mRNA and protein levels in the skeletal muscle tissues from C57BL/6 mice were measured by real-time PCR and Western blotting.
# [3] = system: NF-κB signaling (p-IKK, p-IκB, IκB, NF-κB p65); test: NF-κB signaling in skeletal muscle by Western blotting; conditions: gastrocnemius muscle, C57BL/6 mice, cisplatin-treated, Pae 10 and Pae 20
# Protocol: Proteins were extracted from skeletal muscle using NucleoSpin kits (Macherey-Nagel, Duren, Germany) and quantified using the BCA Protein Assay Kit (Pierce, Rockford, IL, USA). Anti-β-actin antibody was used to quantify protein loading. For myosin protein (MyHC, myosin heavy chain), myogenic factor (MyoD), and NF-κB signaling system (p-IKK, IKK, p-IκB, and IκB), protein levels in the gastrocnemius muscle were measured by Western blotting. Band intensities were quantified using ImageJ software (NIH, Bethesda, MD, USA). Nuclear and cytoplasmic lysates were prepared from the skeletal muscle using a nuclear extraction kit (Active Motif, Carlsbad, CA, USA). The protein concentration of both lysates was measured using the BCA Protein Assay Kit (Pierce). Anti-NF-κB p65 was used as the primary antibody, and 10 μg of protein per lysate was analyzed by Western blotting. TBP (TATA box-binding protein) and β-actin were as controls for the nuclear and cytosolic lysates, respectively. The target DNA binding activity of NF-κB was measured using the TransAM NF-κB ELISA kit (Active Motif, USA). NF-κB signaling was analyzed by Western blotting of the total extract and the cytosolic and nuclear fraction from the skeletal muscle of C57BL/6 mice.
# [4] = system: C57BL/6 mice with Lewis lung carcinoma-induced cachexia; test: Muscle strength and endurance in C57BL/6 mice with Lewis lung carcinoma-induced cachexia
# Protocol: as §1, §2
# Each mouse of the control group was injected subcutaneously with 100 μL of saline solution. For the cachexia-induced groups, Lewis lung carcinoma cells (C57BL/6 mice) or colon-26 carcinoma cells (Balb/c mice) were injected subcutaneously into the flank area of each mouse at a dose of 10^6 cells/100 μL/mouse. […] After completion of 9 days of administration, the muscle strength of the mice was measured using a grip strength test device (Bioseb, USA), and the endurance of the mice was measured using a treadmill device (Columbus Instrument, USA).
# [5] = Lewis lung carcinoma C57BL/6 mice, paeoniflorin 10 to 20 mg/kg/day vs megestrol acetate 160 mg/kg/day
structure (smiles),measurement,setting,value
C[C@@]12C[C@@]3(O)O[C@@H](O1)[C@]1(COC(=O)c4ccccc4)[C@H]3C[C@@]12O[C@@H]1O[C@H](CO)[C@@H](O)[C@H](O)[C@H]1O [paeoniflorin],body weight,"[1]; C57BL/6 mice, Lewis lung carcinoma-injected, paeoniflorin orally once daily for 9 days vs Lewis lung carcinoma-injected group, FIG. 14A",significantly increased
same,weight of gastrocnemius muscle,"[1]; C57BL/6 mice, Lewis lung carcinoma-injected, paeoniflorin orally once daily for 9 days vs Lewis lung carcinoma-injected group, FIG. 14B",significantly increased
same,weight of quadriceps muscle,"[1]; C57BL/6 mice, Lewis lung carcinoma-injected, paeoniflorin orally once daily for 9 days vs Lewis lung carcinoma-injected group, FIG. 14C",significantly increased
same,effect on body weight and muscle mass compared with megestrol acetate (MA),[1]; [5],better effect
same,MyHC protein level,"[2]; FIGS. 6C, 7A",increased
same,MyoD protein level,"[2]; FIGS. 6D, 7B",increased
same,level of p-IKK (phospho-IKK),[3]; FIG. 10A,reduced again
same,level of p-IκB (phospho-IκB),[3]; FIG. 10B,reduced again
same,level of IκB,[3]; FIG. 11,increased
same,cytosolic level of NF-κB,[3]; FIG. 12A,increased
same,nuclear level of NF-κB,[3]; FIG. 12B,decreased
same,muscle strength,"[4]; C57BL/6 mice, Lewis lung carcinoma-injected, paeoniflorin orally for 9 days, FIG. 16A",significantly increased
same,endurance,"[4]; C57BL/6 mice, Lewis lung carcinoma-injected, paeoniflorin orally for 9 days, FIG. 16B",significantly increased
same,effect on muscle function compared with megestrol acetate (MA),[4]; [5],better effect

# Reference: patent publication US20240325420A1, “COMPOSITION INCLUDING PAEONIFLORIN FOR PREVENTION OR TREATMENT OF CACHEXIA AND MUSCLE LOSS” (CHUNG ANG UNIVERSITY INDUSTRY ACADEMIC COOPERATION …, priority 2021, published 2024)
